One test relates to Candida albicans. As to conditions: Jang, et al. (2008); cited from earlier work.
Test [1] deals with human corneal epithelial cells. Briefly: Benzalkonium chloride (BAK) injury model, LDH release. Type of test: cell-based. As to conditions: 0.002% BAK. On the procedure:
Columns represent the mortality (mean±SD) of cells, total cellular death being 100% (Control).
One particularly useful model of dry eye disease and inflammatory ocular disease is the use of benzalkonium chloride (BAK) to induce cell death, inflammation and injury to ocular surfaces and corneal cells (Tressler, et al. (2011) Ocul. Surf. 9:140-58; Paimela, et al. (2012) Mol. Vis. 18:1189-1196). Briefly, human corneal epithelial cells were cultured under standard conditions. Cells were treated with native HTN5 (50 μM) or synthetic histatin (10 μM) in the presence or absence of 0.002% BAK. The permeability of cellular membranes following the exposures was determined by measuring the amount of released lactate dehydrogenase (LDH) enzyme from the cells. Maximum LDH release of cells was determined by lysing cells, and subsequently measuring the LDH from the culture medium. […] Accordingly, endogenous and synthetic histatins could be used to protect cells from injury, inflammation and cell death and are therefore of use in the treatment of dry eye disease.

For test [2] the following is noted: Oudhoff, et al. (2008); cited from earlier work.
Test [3] relates to Human umbilical vein endothelial cells (HUVECs). Briefly: Tube formation assay, VEGF-induced angiogenesis. The format is cell-based. As to conditions: VEGF 10 ng/mL, peptide 50 μM. On the procedure: Tube formation assays were used to assess the anti-angiogenic property of synthetic histatin compared to native HTN1 and HTN2. Human umbilical vein endothelial cells (HUVECs) were suspended in diluted MATRIGEL for an overnight incubation and then subjected to a media change containing VEGF (10 ng/mL) (Goodwin (2007) Microvasc. Res. 74:172-83) alone or VEGF (10 ng/mL) in combination with HTN1, HTN2 or synthetic histatin (50 μM).

Test [4] deals with human corneal epithelium cells. The experiment in a line: In vitro scratch assay (cell migration, wound closure). Type of test: cell-based. The note with it: for Time to Closure: control no closure in 48 hours. From the text: A conventional in vitro scratch assay was used to measure cell migration in the presence of a synthetic histatin containing three metal binding domains from HTN5 and one wound healing domain (i.e., SEQ ID NO:29). A “scratch” was made in a monolayer of human corneal epithelium cells and time lapsed microscopy was used to capture images at the beginning and at regular intervals during cell migration to close the scratch.

Another test addresses T1, MMP2 (Homo sapiens, UniProt P08253).
T1 sequence (P08253 110-660): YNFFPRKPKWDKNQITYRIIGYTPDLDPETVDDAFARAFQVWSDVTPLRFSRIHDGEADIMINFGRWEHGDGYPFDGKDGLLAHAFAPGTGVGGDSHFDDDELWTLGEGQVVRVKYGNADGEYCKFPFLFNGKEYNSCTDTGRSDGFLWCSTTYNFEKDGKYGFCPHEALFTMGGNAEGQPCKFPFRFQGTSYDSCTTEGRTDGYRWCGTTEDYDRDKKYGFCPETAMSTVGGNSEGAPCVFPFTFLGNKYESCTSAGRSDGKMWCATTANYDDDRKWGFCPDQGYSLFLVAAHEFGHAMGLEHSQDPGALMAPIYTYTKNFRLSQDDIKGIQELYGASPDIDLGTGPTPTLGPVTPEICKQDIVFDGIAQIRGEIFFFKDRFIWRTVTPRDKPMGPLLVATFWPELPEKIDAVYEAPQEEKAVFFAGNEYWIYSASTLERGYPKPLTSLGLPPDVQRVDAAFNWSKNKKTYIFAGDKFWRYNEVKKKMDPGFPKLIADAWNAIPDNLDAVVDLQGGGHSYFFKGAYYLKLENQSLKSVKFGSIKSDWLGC
The experiment in a line: Zymography analysis of MMP2 inhibition. The format is biochemical. The note with it: pro-MMP2 activated with APMA, varying amounts of peptide. On the procedure: FIG. 1 show zymographic analysis of synthetic histatin inhibitory activity. Experiments included pro-MMP2 (100 ng; “−Ve”); activation of Pro-MMP2 with APMA (1 mM; “+Ve”); inclusion of a classic matrix metalloproteinase inhibitor, GM6001 (200 nM; “Inh”); and varying amounts of a synthetic histatin containing three metal binding domains from endogenous HTN5 and a wound healing domain from endogenous HTN1 (“H-1”). The protein ladder is shown on the right.
Zymography analysis of a synthetic histatin containing three metal binding domains from HTN5 and one wound healing domain (i.e., SEQ ID NO:29) was carried out using conventional methods. See, e.g., Thomadaki, et al. (2013) Oral Dis. 19(8):781-8.

The next test relates to human corneal epithelium. The experiment in a line: Gene expression changes after synthetic histatin application. Type of test: cell-based. The note with it: synthetic histatin treatment. From the text: Pathophysiological analyses of dry eye disease indicate that the critical factors involved in the development of dry eye disease involve inflammatory pathways including Th17/IL-17, I-CAM, IL-8, TNFα/IL-1/IL-6/NFκB, IL-10, MMP9 (and other matrix metalloproteinases) and TLR4/HSP (Stevenson, et al. (2012) Arch. Ophthalmol. 130(1):90-100). In addition, it has been reported that Ephrin A is involved in the development of epitheliopathy, poor wound healing and corneal disease related to elevated sugar levels/diabetic and neuropathic ulcers of the ocular surface. Accordingly, it was determined what effect synthetic histatin application would have on the gene expression in human corneal epithelium. […] Th17/IL-17 pathway is a central and important pathway in dry eye disease (Stevenson, et al. (2012) Arch Ophthalmol. 130(1):90-100).

For test [5] the following is noted: Oppenheim, et al. (2012); cited from earlier work.

Starred links: 1 amine or outer side, 2 acyl side, 3 side chain; linkers in the order of their positions; H or OH if unused. Non-standard residues stand in square brackets, D forms with d. No end group written: not given here. (CH2)6 = -(CH2)6- hydrocarbon linking residues, C(CCC[*:2])CC[*:1]; pS = N[C@@H](COP(=O)(O)O)C(=O)O

For the substance AKRHHGYKRKFH [P-113], the fungicidal activity result in the test on Candida albicans is “exhibits fungicidal activity”.
In the case of “DSHAKRHHGYKRKFHEKHHSHRGY [HTN5, endogenous (native) histatin 5, reference compound]”, the “cell death (released LDH)” value in test [1] (50 μM peptide) is given as “statistically significant reduction in cell death”. For the same substance, the “wound closure activity in vitro” value in test [2] is given as “inactivity”.
With “DSHAKRHHGYKRKFHEKHHSHRGYRSNYLYDN [HTN3, endogenous (native) histatin 3]”, the “wound closure activity in vitro” value in test [2] was “exhibit wound closure activities in vitro”.
For “DSpHEKRHHGYRRKFHEKHHSHREFPFYGDYGSNYLYDN (D[pS]HEKRHHGYRRKFHEKHHSHREFPFYGDYGSNYLYDN) [HTN1, endogenous (native) histatin 1]”, in test [2], the “wound closure activity in vitro” value is listed as “exhibit wound closure activities in vitro”. In test [3], the “formation of capillary-like structures / inhibition of angiogenesis” value is listed as “inhibition of angiogenesis”.
As for “HEKHH-(CH2)6-HEKHH-(CH2)6-HEKHH-(CH2)6-YGDYGSNYLYDN (HEKHH[(CH2)6]HEKHH[(CH2)6]HEKHH[(CH2)6]YGDYGSNYLYDN) [synthetic histatin]”, the “Time to Closure” value in test [4] (1 μM synthetic histatin) was 48 h. For the same substance, the “Time to Closure” value in test [4] (10 μM synthetic histatin) is 22 h. For the same substance, the “wound healing (reduction in time to wound closure)” value in test [4] (scratch in monolayer, time lapsed microscopy) was “notable enhancement of wound healing”. Moreover, the “cell death (released LDH)” value in test [1] (10 μM peptide) was “statistically significant reduction in cell death”. Further, in the test with MMP2, the “inhibition of MMP2 activity” value was “inhibited MMP2 activity in a dose-dependent manner”. In the test with human corneal epithelium, the “expression of genes related to MMP activity” value was “reduced”, the “expression of several members of the TNFα/IL-1/IL-6/NFKB pathway” value is “significant reduced”, the “genes of the IL-10 pathway (62 genes) affected” value was 6 and the “genes of the TLR4/HSP pathway (54 genes) significantly affected” value came to 5. For the same substance, the “genes of the Th17/IL-17 pathway (44 genes) with significant changes in gene expression” value in the test on human corneal epithelium was 7. Moreover, the “formation of capillary-like structures / inhibition of angiogenesis” value in test [3] is listed as “did not form such structures”.
Turning to “RKFHEKHHSHREFPFYGDYGSNYLYDN [HTN2, endogenous (native) histatin 2]”, in test [3], the “formation of capillary-like structures / inhibition of angiogenesis” value is “inhibition of angiogenesis”.
In the case of RKFHEKHHSHRGYR [SEQ ID NO:53], the fungicidal activity entry in test [5] is on record as “exhibit fungicidal activity”.

Source of the values: US11370816B2, “Histatins and method of use thereof” (THE BOARD OF TRUSTEES OF THE UNIVERSITY OF ILLINOIS, priority 2015, dated 2022).
